Patent publication US11964971B2, “Methods and compositions for modulating splicing” (Skyhawk Therapeutics, Inc., priority 2019, dated 2024)

Key:
SMN protein = SMN protein assay (MSD) in SMA patient fibroblasts (GM03813); format: cell-based, human
Protocol: Compounds are tested on spinal muscular atrophy (SMA) patient fibroblasts (GM03813, Coriell) at doses ranging from 2.5 μM to 0.6 nM. 7000 cells/well are seeded in 96-well plates. Compounds are incubated for 48 hours and the cells were lysed with 100 μL of lysis buffer. 20 μL of lysate is used for SMN protein measurement by Mesoscale Discovery (MSD) assay developed by PharmOptima (Michigan). A standard curve prepared with SMN protein ranging from […] is used in each MSD plate to calculate the absolute SMN protein amount in each sample.

[1] = tested on: MDR1-MDCK cell monolayers; settings: dog, MDCK-MDR1, 120 min, 5 μM, pH 7.4
MDR1 = assay: in vitro; settings: dog; for Papp A→B at 120 min, 5 μM: MDCK-MDR1, pH 7.4, MDCK-MDR1: Papp A-B (10^−6, cm/s); for Papp B→A at 120 min, 5 μM: MDCK-MDR1, pH 7.4, MDCK-MDR1: Papp B-A (10^−6, cm/s)
MDR1 (P-gp) = assay: MDCK-MDR1 permeability assay, blood-brain-barrier penetration potential; settings: dog, MDCK-MDR1, pH 7.4, MDCK-MDR1 Efflux Ratio

SMILES	EC50 (SMN protein) [nM]	MDCK-MDR1: % Recov A-B (%) [1] [%]	MDCK-MDR1: % Recov B-A (%) [1] [%]	Papp A→B at 120 min, 5 μM (MDR1) [×10⁻⁶ cm/s]	Papp B→A at 120 min, 5 μM (MDR1) [×10⁻⁶ cm/s]	efflux ratio at 120 min, 5 μM (MDR1 (P-gp))
CN(c1cnc(-c2cc3ccc(OCF)nc3cc2O)cn1)[C@@H]1CC2CC[C@H](N2)[C@@H]1F (single isomer, unassigned) [Compound 19E1]	501 to 10000	24	57	2.13	18.6	9
CN(c1cnc(-c2cc(F)c(C3=CC(F)NC(F)=C3)cc2O)cn1)[C@H]1C[C@]2(C)CC[C@@](C)(N2)[C@H]1F (single isomer, unassigned) [Compound 63E2]	501 to 10000	19	24	0.58	0.22	–
CN(c1cnc(-c2cc(F)c(-c3cnn(C)c3)cc2O)cn1)[C@@H]1C[C@@]2(C)CC[C@](C)(N2)[C@@H]1F [Compound 58E1, 4-fluoro-2-(5-(((1S,2R,3R,5R)-2-fluoro-1,5-dimethyl-8-azabicyclo[3.2.1]octan-3-yl)(methyl)amino)pyrazin-2-yl)-5-(1-methyl-1H-pyrazol-4-yl)phenol]	101 to 500	37	64	7.67	22.1	3
CN(c1cnc(-c2cc3oc(C(=O)N4CCC4)cc3cc2O)cn1)[C@@H]1CC2CC[C@H](N2)[C@@H]1F (single isomer, unassigned) [Compound 20E1]	501 to 10000	83	101	2.71	56.4	21
COc1cc(-c2ccc(-c3cnc(N(C4CC4)[C@@H]4CC5CC[C@H](N5)[C@@H]4F)cn3)c(O)c2)cc(F)n1 (single isomer, unassigned) [Compound 52E1]	501 to 10000	12	76	0.92	0.71	1
CN(c1cnc(-c2cc3ncn(CC(F)(F)F)c(=O)c3cc2O)cn1)[C@H]1C[C@@H]2CCC[C@@H](N2)[C@H]1F [Compound 18E2, 7-(5-(((1R,2R,3S,5S)-2-fluoro-9-azabicyclo[3.3.1]nonan-3-yl)(methyl)amino)pyrazin-2-yl)-6-hydroxy-3-(2,2,2-trifluoroethyl)quinazolin-4(3H)-one]	501 to 10000	82	87	1.33	73.5	56
O=c1cc(-c2cc(O)c(-c3cnc(N(C4CC4)[C@H]4C[C@@H]5CCC(N5)[C@H]4F)cn3)cc2F)ccn1CF (single isomer, unassigned) [Compound 39E2]	501 to 10000	82	81	2.58	62	24
COc1cc(-c2cc(O)c(-c3cnc(N(C4CC4)[C@H]4C[C@@H]5CCC(N5)[C@H]4F)cn3)cc2F)ccn1 (single isomer, unassigned) [Compound 36E2]	501 to 10000	10	40	0.59	1.3	2
CN(c1cnc(-c2ccc(-c3cnn(C)c3)cc2O)cn1)[C@@H]1CC2N[C@H](C1)CC2(F)F (single isomer, unassigned) [Compound 10E2]	101 to 500	64	67	28.7	23.7	1
CN(c1cnc(-c2ccc(-c3ccn(CF)c(=O)c3)cc2O)cn1)[C@H]1C[C@@H]2CCC(N2)[C@H]1F (single isomer, unassigned) [Compound 46E2]	101 to 500	77	80	2	43	22
CNC(=O)/C=C/c1cc(O)c(-c2cnc(N(C)[C@@H]3CC4CC[C@H](N4)[C@@H]3F)cn2)cc1F (single isomer, unassigned) [Compound 60E1]	51 to 100	93	88	1.71	51.3	30
COc1cc(-c2ccc(-c3cnc(N(C)[C@@H]4CC5N[C@H](C4)CC5(F)F)cn3)c(O)c2)cnn1 (single isomer, unassigned) [Compound 68E1]	501 to 10000	63	86	9.35	43	5
O=c1cc(-c2ccc(-c3cnc(N(C4CC4)[C@H]4C[C@@H]5CCC(N5)[C@H]4F)cn3)c(O)c2)ccn1CF (single isomer, unassigned) [Compound 54E2]	501 to 10000	63	67	1.81	44	24
CNC(=O)/C=C/c1cc(O)c(-c2cnc(N(C3CC3)[C@@H]3C[C@@]4(C)CC[C@](C)(N4)[C@@H]3F)cn2)cc1F [Compound 79E1, (E)-3-(4-(5-(cyclopropyl((1S,2R,3R,5R)-2-fluoro-1,5-dimethyl-8-azabicyclo[3.2.1]octan-3-yl)amino)pyrazin-2-yl)-2-fluoro-5-hydroxyphenyl)-N-methylacrylamide]	501 to 10000	84	88	1.67	45.3	27
CNC(=O)c1cc(O)c(-c2cnc(N(C)[C@@H]3CC4CC[C@H](N4)[C@@H]3F)cn2)cc1F (single isomer, unassigned) [Compound 15E1]	501 to 10000	86	97	2.74	64.4	24
O=c1cc(-c2ccc(-c3cnc(N(C4CC4)[C@@H]4CC5CC[C@H](N5)[C@@H]4F)cn3)c(O)c2)ccn1CF (single isomer, unassigned) [Compound 54E1]	501 to 10000	64	70	1.92	43.4	23
CN(c1cnc(-c2ccc(-c3cn[nH]c3)cc2O)cn1)[C@H]1CC2CC(F)(F)[C@H](C1)N2 (single isomer, unassigned) [Compound 9E2]	16 to 50	71	90	19.9	55.4	3
CN(c1cnc(-c2ccc(-c3cc[nH]c(=O)c3)cc2O)cn1)[C@@H]1CC2COC[C@H](N2)[C@@H]1F (single isomer, unassigned) [Compound 82E1]	501 to 10000	83	87	0.51	39.2	77
CN(c1cnc(-c2ccc3ccncc3c2O)cn1)[C@H]1C[C@@H]2CCC(N2)[C@H]1F (single isomer, unassigned) [Compound 71E2]	16 to 50	–	–	–	–	–
Cc1noc(-c2ccc(-c3cnc(N(C)[C@H]4C[C@@H]5CCC(N5)[C@H]4F)cn3)c(O)c2)n1 (single isomer, unassigned) [Compound 70E2]	101 to 500	–	–	–	–	–
Cc1noc(-c2ccc(-c3cnc(N(C)[C@@H]4CC5CC[C@H](N5)[C@@H]4F)cn3)c(O)c2)n1 (single isomer, unassigned) [Compound 70E1]	501 to 10000	–	–	–	–	–
